Marks after values point to notes of the source that are not given here.
Experiments:
Set-up in all cases: species or system Sprague–Dawley rats
Details in all cases: rat, in vivo
[1] = OLINDA/EXM predicted clinical doses: adult female phantom, non-normalised τ, FBP
Experimental: (§1) PET studies were reconstructed using filtered-back projection (FBP) and Mediso’s iterative Tera-Tomo 3D reconstruction algorithm with the following settings: 4 iterations, 6 subsets, full detector model, normal regularization, spike filter on, voxel size 0.4 mm and 400‒600 keV energy window. PET data were corrected for randoms, scatter and attenuation. Time-activity curves for each source organ, whole-body and remainder of the body were plotted. […] Residence times (τ) were determined for each radiotracer in source organs, whole-body and remaining (any activity assigned to the whole-body but not assigned to a source organ). Each preclinical source organ’s τ was determined by calculating the area under its respective time-activity curve (activity normalised to the percentage maximum injected dose as a function of time) using the trapezoid method. […] From each individual animal, eight dosimetry models were constructed from all possible combinations of image reconstruction method (FBP or iterative), τ (non-normalised or normalised to human organ masses), and sex of phantom (male or female). Supplementary table 6. Predicted clinical absorbed organ doses and whole-body effective doses of PET radiotracers using non-normalised (preclinical) adult female source organ residence times from filtered backprojection reconstructions.

[2] = Residence times normalised to human organ masses, iterative reconstruction
Experimental: as §1, with “1. Scaling (normalisation) factors applied to residence times” for “6. Predicted clinical absorbed organ doses and whole-body effective doses”, “in male Sprague-Dawley rats to predict human” for “using non-normalised (preclinical)”, “adult” for “adult female source organ”, “times. […] Stabin et al. 2006 ^4); WB: Whole Body.” for “times from filtered backprojection reconstructions.”

[3] = OLINDA/EXM predicted clinical doses: adult female phantom, normalised τ, iterative
Experimental: as §1, with “12.” for “6.”, “normalised” for “non-normalised (preclinical)”, “iterative” for “filtered backprojection”

[4] = Comparison of predicted doses across the eight dosimetry models and radiotracers
Experimental: Time-activity curves for each source organ, whole-body and remainder of the body were plotted. […] Residence times (τ) were determined for each radiotracer in source organs, whole-body and remaining (any activity assigned to the whole-body but not assigned to a source organ). Each preclinical source organ’s τ was determined by calculating the area under its respective time-activity curve (activity normalised to the percentage maximum injected dose as a function of time) using the trapezoid method. […] From each individual animal, eight dosimetry models were constructed from all possible combinations of image reconstruction method (FBP or iterative), τ (non-normalised or normalised to human organ masses), and sex of phantom (male or female). All graphs and statistical analyses were generated and performed in GraphPad Prism 5.01 (GraphPad Software Inc., California, USA). One-way ANOVA followed by a Dunnett’s multiple comparison post-hoc test with [^18F]FDG as the control was used to determine which novel radiotracers’ biodistribution and dosimetry differed from [^18F]FDG in the same organs. All statistical tests used α = 0.05 as the measure for statistical significance. Bland–Altman plots were calculated as previously described[33],[34].

**Q.** What does the source list for “NOTA-RGDfK [existing Al^18F-labelled NOTA-RGDfK peptide PET radiotracer; precursor NOTA-RGDfK (1)]”?
**A.** Effective Dose (mSv/MBq), Average ± SD [1]: 6.49E-02 mSv/MBq; Estimated Absorbed Dose of Organ, Average: Adrenals [1]: 1.46E-02 mGy/MBq; Estimated Absorbed Dose of Organ, Average: Brain [1]: 3.20E-03 mGy/MBq; Estimated Absorbed Dose of Organ, Average: Breasts [1]: 1.01E-02 mGy/MBq; Estimated Absorbed Dose of Organ, Average: Gallbladder Wall [1]: 1.49E-02 mGy/MBq; Estimated Absorbed Dose of Organ, Average: Heart Wall [1]: 9.41E-03 mGy/MBq; Estimated Absorbed Dose of Organ, Average: Kidneys [1]: 2.70E-02 § mGy/MBq; Estimated Absorbed Dose of Organ, Average: LLI Wall [1]: 1.62E-01 ‡ mGy/MBq; Estimated Absorbed Dose of Organ, Average: Liver [1]: 9.39E-03 mGy/MBq; Estimated Absorbed Dose of Organ, Average: Lungs [1]: 7.79E-03 mGy/MBq; Estimated Absorbed Dose of Organ, Average: Muscle [1]: 1.61E-02 mGy/MBq; Estimated Absorbed Dose of Organ, Average: Osteogenic Cells [1]: 2.13E-02 mGy/MBq; Estimated Absorbed Dose of Organ, Average: Ovaries [1]: 3.85E-02 mGy/MBq; Estimated Absorbed Dose of Organ, Average: Pancreas [1]: 1.53E-02 mGy/MBq; Estimated Absorbed Dose of Organ, Average: Red Marrow [1]: 1.52E-02 mGy/MBq; Estimated Absorbed Dose of Organ, Average: Skin [1]: 1.08E-02 mGy/MBq; Estimated Absorbed Dose of Organ, Average: Small Intestine [1]: 2.41E-02 mGy/MBq; Estimated Absorbed Dose of Organ, Average: Spleen [1]: 1.45E-02 mGy/MBq; Estimated Absorbed Dose of Organ, Average: Stomach Wall [1]: 1.50E-02 mGy/MBq; Estimated Absorbed Dose of Organ, Average: Thymus [1]: 1.25E-02 mGy/MBq; Estimated Absorbed Dose of Organ, Average: Thyroid [1]: 1.15E-02 mGy/MBq; Estimated Absorbed Dose of Organ, Average: Total Body [1]: 1.63E-02 mGy/MBq; Estimated Absorbed Dose of Organ, Average: ULI Wall [1]: 2.11E-02 mGy/MBq; Estimated Absorbed Dose of Organ, Average: Urinary Bladder Wall [1]: 6.07E-01 † mGy/MBq; Estimated Absorbed Dose of Organ, Average: Uterus [1]: 4.81E-02 mGy/MBq; Normalised Residence Time (h), Average: Remaining [2]: 1 h; Effective Dose [3]: 8.33E-03 mSv/MBq; Estimated Absorbed Dose of Organ, Brain [3]: 8.66E-03 mGy/MBq; Estimated Absorbed Dose of Organ, Breasts [3]: 2.91E-03 mGy/MBq; Estimated Absorbed Dose of Organ, Gallbladder Wall [3]: 5.51E-03 mGy/MBq; Estimated Absorbed Dose of Organ, Heart Wall [3]: 1.03E-02 mGy/MBq; Estimated Absorbed Dose of Organ, Kidneys [3]: 1.53E-02 mGy/MBq; Estimated Absorbed Dose of Organ, LLI Wall [3]: 8.45E-03 mGy/MBq; Estimated Absorbed Dose of Organ, Liver [3]: 3.23E-02 § mGy/MBq; Estimated Absorbed Dose of Organ, Lungs [3]: 9.20E-03 mGy/MBq; Estimated Absorbed Dose of Organ, Muscle [3]: 8.21E-03 mGy/MBq; Estimated Absorbed Dose of Organ, Osteogenic Cells [3]: 7.60E-03 mGy/MBq; Estimated Absorbed Dose of Organ, Ovaries [3]: 7.96E-03 mGy/MBq; Estimated Absorbed Dose of Organ, Pancreas [3]: 1.68E-02 mGy/MBq; Estimated Absorbed Dose of Organ, Red Marrow [3]: 8.65E-03 mGy/MBq; Estimated Absorbed Dose of Organ, Skin [3]: 1.09E-02 mGy/MBq; Estimated Absorbed Dose of Organ, Small Intestine [3]: 6.42E-02 ‡ mGy/MBq; Estimated Absorbed Dose of Organ, Spleen [3]: 5.48E-03 mGy/MBq; Estimated Absorbed Dose of Organ, Stomach Wall [3]: 1.13E-02 mGy/MBq; Estimated Absorbed Dose of Organ, Thymus [3]: 8.11E-03 mGy/MBq; Estimated Absorbed Dose of Organ, Thyroid [3]: 6.90E-03 mGy/MBq; Estimated Absorbed Dose of Organ, ULI Wall [3]: 8.02E-03 mGy/MBq; Estimated Absorbed Dose of Organ, Urinary Bladder Wall [3]: 5.97E-03 mGy/MBq; Estimated Absorbed Dose of Organ, Uterus [3]: 2.38E-01 † mGy/MBq; Estimated Absorbed Dose, Total Body [3]: 2.06E-02 mGy/MBq; organs predicted to receive the highest absorbed doses (ranking) [4]: urinary bladder > LLI wall > kidneys

Reference: article PMC7525662, “Preclinical dosimetry models and the prediction of clinical doses of novel positron emission tomography radiotracers” (Scientific Reports, 2020)
